Data set [1] is described as follows: Plasma protein binding assay (equilibrium dialysis), dog plasma. The format is in vitro ADME. Conditions: pH 7.4, equilibrium dialysis 5 hours, read-out: Plasma protein binding rate (%) (converted). On the procedure:
• 1. Test purpose: to evaluate the protein binding rate of the test compound in human, dog, monkey, rat and mouse plasma by equilibrium dialysis; • 2. […] Experimental methods: • 0.1 mol/L sodium phosphate and 0.15 mol/L sodium chloride buffer with pH 7.4±0.1 was preheated;
Preparation of plasma containing test substance: the test compound was dissolved in DMSO to prepare a 10 mmol/l stock solution. 5 μL of stock solution was taken and diluted with 95 μL of acetonitrile to obtain solution A (0.5 mmol/L). 8 μL of solution A was taken and diluted with 192 μL of 0.1 mol/L sodium phosphate buffer to obtain solution B (0.02 mmol/L). 570 μL of plasma was added into a 96-well plate followed by the addition of 30 μL of solution B. The final concentration was 1 μmol/L with 0.01% DMSO.
The plate was shook at 600 rpm for 10 minutes, covered and stored in a freezer (−20° C.).
T5 sample preparation (in triplicate): the dialysis device was added with 100 μL of buffer on its receiver side and 100 μL of plasma containing the test compound on its doner side. And the dialysis device was then shook at 37° C. and 120 rpm for 5 hours. At the end of culture, 25 μL of plasma containing the test substance was taken from the plasma side and then added to a 96-well plate, followed by the addition of 25 μL of buffer and 200 μL of acetonitrile solution containing internal standard. […]
(In equilibrium dialysis free small molecules cross a membrane that holds back macromolecules.)

Another data set concerns the target T1, CYP 2C8 (Homo sapiens, UniProt P10632).
T1 sequence (P10632 1-490): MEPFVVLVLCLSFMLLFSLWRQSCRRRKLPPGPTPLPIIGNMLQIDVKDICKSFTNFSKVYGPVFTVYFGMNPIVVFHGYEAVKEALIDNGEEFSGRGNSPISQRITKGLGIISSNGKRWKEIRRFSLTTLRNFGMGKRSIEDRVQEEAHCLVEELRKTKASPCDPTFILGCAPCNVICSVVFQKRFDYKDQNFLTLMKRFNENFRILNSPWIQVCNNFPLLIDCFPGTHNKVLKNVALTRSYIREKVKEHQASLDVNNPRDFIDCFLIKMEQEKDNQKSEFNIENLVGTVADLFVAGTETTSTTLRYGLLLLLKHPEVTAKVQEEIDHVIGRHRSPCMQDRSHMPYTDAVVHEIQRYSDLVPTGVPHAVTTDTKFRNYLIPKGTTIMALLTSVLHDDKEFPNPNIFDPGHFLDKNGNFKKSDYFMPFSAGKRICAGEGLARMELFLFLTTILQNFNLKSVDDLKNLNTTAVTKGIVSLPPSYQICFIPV
As to the kind of experiment: CYP inhibition test, human liver microsomes, CYP2C8. On the procedure:
(§1) • 1. Test purpose: to evaluate the inhibitory ability of some of the example compounds of the present invention against CYP1A2, 2B6, 2C8, 2C9, 2C19, 2D6 and 3A4 via human liver microsomes. • 2. […] Test method:
(§2) • 1. K/Mg buffer: the components were 0.1 mol/L potassium phosphate and 5 mmol/L magnesium chloride with pH 7.4±0.1, preheated. • 2. Solution of the test compound: the test compound was dissolved in dimethyl sulfoxide to prepare a stock solution of 10 mmol/L. 8 μL of 10 mmol/L stock solution was transferred to a 96-well plate containing 12 μL of acetonitrile as the highest concentration point, at 3-fold dilution, for 8 concentrations. • 3. NADPH solution: 66.7 mg of NADPH was dissolved in 10 mL of 0.1 mol/L K/Mg buffer to obtain 8 mmol/L NADPH solution with pH 7.4. • 4. Human liver microsomal stock solution: human liver microsomes were dissolved in 0.1 mol/L K/Mg buffer to obtain 20 mg/mL stock solution. • 5. Human liver microsomal working solution: 10 μL of 20 mg/mL human liver microsomal stock solution was taken and added into 990 μL of 0.1 mol/L K/Mg buffer to prepare 0.2 mg/mL human liver microsomal solution. • 6. […]
(Liver microsomes are vesicles of endoplasmic reticulum, rich in cytochrome P450 enzymes.)

The next data set has as its target CYP 2C9 (Homo sapiens, UniProt P11712). As to the kind of experiment: CYP inhibition test, human liver microsomes, CYP2C9. On the procedure: as §1, §2

One may read the IC50 as the concentration needed to halve the response being measured. A low value points to higher potency.

Chain of CYP 2C9 (P11712 whole entry): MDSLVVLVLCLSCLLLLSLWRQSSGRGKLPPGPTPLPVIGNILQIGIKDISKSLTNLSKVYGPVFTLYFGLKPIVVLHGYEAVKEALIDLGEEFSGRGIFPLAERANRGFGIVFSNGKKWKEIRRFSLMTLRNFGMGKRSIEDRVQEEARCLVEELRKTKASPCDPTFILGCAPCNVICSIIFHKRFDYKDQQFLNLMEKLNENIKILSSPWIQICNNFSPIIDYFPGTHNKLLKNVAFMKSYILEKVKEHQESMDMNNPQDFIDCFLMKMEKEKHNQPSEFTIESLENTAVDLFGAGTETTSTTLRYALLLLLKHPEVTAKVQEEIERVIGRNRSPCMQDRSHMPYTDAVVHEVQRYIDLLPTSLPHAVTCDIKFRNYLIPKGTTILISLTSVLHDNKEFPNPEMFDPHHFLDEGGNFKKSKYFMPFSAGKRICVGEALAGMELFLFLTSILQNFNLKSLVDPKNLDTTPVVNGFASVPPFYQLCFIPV

Take `C=CC(=O)N1CCN(c2nc(=O)n(-c3c(C)ccnc3C(C)C)c3nc(-c4c(O)cccc4F)c(F)cc23)[C@@H](C)C1` [AMG510]: in data set [1], the fraction unbound at 5 h, 1 μmol/L is 0.079. Besides, the IC50 at CYP 2C8 and against CYP 2C9 was above 10 µM throughout.

For `C=C(F)C(=O)N1CCN(c2nc(OC[C@@H]3CCCN3C)nc3c2CCN(c2cccc4cccc(Cl)c24)C3)C[C@@H]1CC#N` [MRTX849], in data set [1], the fraction unbound at 5 h, 1 μmol/L is 0.012. The IC50 against CYP 2C8 was above 10 µM; against CYP 2C9 it was 1.35 µM.

For the origin of these results see patent US20250034161A1, “SPIROCYCLIC COMPOUND AS KRAS-G12C INHIBITOR” (Shanghai Euregen Biopharma Co., Ltd., priority 2020, published 2025).
